The target of one assay is T1, 5HT2B receptors (Homo sapiens, UniProt P41595).
T1 construct: expressed in transfected cells; host or cells: CHO-K1 cells
Put plainly: Human 5-HT2B functional high throughput screening assay in CHO-K1 cells (calcium flux). The following applies: for EC50: CHO-K1 cells, calcium flux. The assay is classed as cell-based. Summed up:
(§1)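 Calcium flux in CHO-K1 cells overexpressing each receptor, using Ca4 dye with probenecid and FLIPR detection. Top concentration was 10 μM, diluted 1:10 across 6 points, and efficacy was scaled to serotonin.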

A further assay has as its target T2, 5HT2C receptors (Homo sapiens, UniProt P28335).
T2 sequence (P28335 33-458): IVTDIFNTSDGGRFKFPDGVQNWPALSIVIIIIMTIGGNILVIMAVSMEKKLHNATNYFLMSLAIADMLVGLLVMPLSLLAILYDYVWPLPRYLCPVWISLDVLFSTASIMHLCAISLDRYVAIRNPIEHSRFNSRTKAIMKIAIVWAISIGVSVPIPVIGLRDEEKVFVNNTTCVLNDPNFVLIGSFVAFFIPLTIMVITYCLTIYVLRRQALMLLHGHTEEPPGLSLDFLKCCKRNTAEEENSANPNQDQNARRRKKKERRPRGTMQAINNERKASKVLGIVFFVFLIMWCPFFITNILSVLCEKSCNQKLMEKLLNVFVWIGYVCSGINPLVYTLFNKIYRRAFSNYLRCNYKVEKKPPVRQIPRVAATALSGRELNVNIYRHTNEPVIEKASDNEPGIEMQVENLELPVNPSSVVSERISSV
Put plainly: Human 5-HT2C functional high throughput screening assay in CHO-K1 cells (calcium flux). Details: expressed in transfected cells; host or cells: CHO-K1 cells; call rule not given here. The following applies: for EC50: CHO-K1 cells, calcium flux; for Emax: CHO-K1, 5-HT2C, maximum functional response as percentage relative to the effect of serotonin. In kind it is cell-based. Summed up:
as §1
(In general: Calcium flux is commonly read through the fluorescence of an indicator in the cells.)

[1] abbreviates: 5-HT2B agonist activity, read-out: EC50.
Where [2] appears, read: 5-HT2B, maximum functional response as percentage relative to the effect of serotonin.
The mark [3] stands for this setting: 5-HT2C agonist activity, read-out: EC50.

Like-named read-outs stand apart in the source and are kept apart here. A value given as a limit tells only on which side of the number the result lay.

T1 sequence (P41595 whole entry): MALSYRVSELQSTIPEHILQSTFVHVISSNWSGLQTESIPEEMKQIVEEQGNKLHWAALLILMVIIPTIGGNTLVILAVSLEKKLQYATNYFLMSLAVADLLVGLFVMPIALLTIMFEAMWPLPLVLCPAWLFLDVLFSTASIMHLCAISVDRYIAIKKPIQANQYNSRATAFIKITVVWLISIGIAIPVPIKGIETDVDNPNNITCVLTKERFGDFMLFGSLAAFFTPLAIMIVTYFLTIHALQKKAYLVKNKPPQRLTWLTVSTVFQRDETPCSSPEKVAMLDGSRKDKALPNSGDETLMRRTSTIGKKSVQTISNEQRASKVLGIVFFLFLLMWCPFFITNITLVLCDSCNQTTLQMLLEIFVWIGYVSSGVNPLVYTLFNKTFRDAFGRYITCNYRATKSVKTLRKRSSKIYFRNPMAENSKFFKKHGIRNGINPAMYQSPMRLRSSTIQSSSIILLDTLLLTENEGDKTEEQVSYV

As a reminder, the EC50 is the concentration needed to bring the measured effect to its halfway point. In general, Emax refers to the greatest response seen or fitted, relative to the assay's reference. Take `CC(=O)c1cccc(-c2ccc3c(c2)C(=O)N(C)C[C@@H]2CN(C)C[C@@H]32)c1` (relative stereo) [Example 191, Trans-8-(3-acetylphenyl)-2,5-dimethyl-1,2,3,3a,4,5-hexahydrobenzo[e]pyrrolo[3,4-c]azepin-6(10bH)-one]: the values for the concentration giving a half-maximal response (EC50) at 5HT2B receptors (setting [1]) and at 5HT2C receptors (setting [3]) were greater than 10 µM and 0.04 µM, respectively. The Emax result is “inactive” on 5HT2B receptors (setting [2]) and 110% on 5HT2C receptors (read-out: Emax).

`CN1C[C@H]2CN(C)C(=O)c3cc(-c4cccc(CCO)c4)ccc3[C@@H]2C1` (relative stereo) [Example 192, Trans-8-(3-(2-hydroxyethyl)phenyl)-2,5-dimethyl-1,2,3,3a,4,5-hexahydrobenzo[e]pyrrolo[3,4-c]azepin-6(10bH)-one]: the EC50 on 5HT2B receptors (setting [1]) is greater than 10 µM; on 5HT2C receptors (setting [3]) it was 0.008 µM. Further, the maximum response (Emax) entry on 5HT2B receptors (setting [2]) was “inactive”; on 5HT2C receptors (read-out: Emax), 120%.

Turning to `CC(O)c1cccc(-c2ccc3c(c2)C(=O)N(C)C[C@@H]2CN(C)C[C@@H]32)c1` (relative stereo) [Example 193, Trans-8-(3-(1-hydroxyethyl)phenyl)-2,5-dimethyl-1,2,3,3a,4,5-hexahydrobenzo[e]pyrrolo[3,4-c]azepin-6(10bH)-one], the concentration for a half-maximal effect (EC50) was greater than 10 µM at 5HT2B receptors (setting [1]) and 0.02 µM on 5HT2C receptors (setting [3]). Further, the Emax entry was “inactive” at 5HT2B receptors (setting [2]) and greater than 120% at 5HT2C receptors (read-out: Emax).

On to `CN1C[C@H]2CN(C)C(=O)c3cc(-c4cccc(C(C)(C)O)c4)ccc3[C@@H]2C1` (relative stereo) [Example 194, Trans-8-(3-(2-hydroxypropan-2-yl)phenyl)-2,5-dimethyl-1,2,3,3a,4,5-hexahydrobenzo[e]pyrrolo[3,4-c]azepin-6(10bH)-one], for which the figures for the EC50 on 5HT2B receptors (setting [1]) and at 5HT2C receptors (setting [3]) were greater than 10 µM and 0.02 µM, respectively. For the same compound, the maximal response (Emax) entry at 5HT2B receptors (setting [2]) was “inactive”; on 5HT2C receptors (read-out: Emax), greater than 120%.

As to `CN1C[C@H]2CNC(=O)c3cc(-c4ccc5nonc5c4)ccc3[C@@H]2C1` (relative stereo) [Example 195, Trans-8-(benzo[c][1,2,5]oxadiazol-5-yl)-2-methyl-1,2,3,3a,4,5-hexahydrobenzo[e]pyrrolo[3,4-c]azepin-6(10bH)-one], the figures for the EC50 at 5HT2B receptors (setting [1]) and on 5HT2C receptors (setting [3]) were greater than 10 µM and 0.01 µM, respectively. Moreover, the values for the maximal response (Emax) result at 5HT2B receptors (setting [2]) and at 5HT2C receptors (read-out: Emax) were “inactive” and greater than 120%, respectively.

As to `CC(C)c1ccc2c(c1)C(=O)NC[C@@H]1CN(C)C[C@@H]21` (relative stereo) [Example 196, Trans-8-isopropyl-2-methyl-1,2,3,3a,4,5-hexahydrobenzo[e]pyrrolo[3,4-c]azepin-6(10bH)-one], the EC50 at 5HT2B receptors (setting [1]) is greater than 10 µM; on 5HT2C receptors (setting [3]) it was 0.5 µM. Moreover, the maximum response (Emax) result at 5HT2B receptors (setting [2]) was “inactive”; on 5HT2C receptors, 30%.

Consider `CC(C)=Cc1ccc2c(c1)C(=O)NC[C@@H]1CN(C)C[C@@H]21` (relative stereo) [Example 197, Trans-2-methyl-8-(2-methylprop-1-enyl)-1,2,3,3a,4,5-hexahydrobenzo[e]pyrrolo[3,4-c]azepin-6(10bH)-one], for which the Emax result was “inactive” on 5HT2B receptors (setting [2]) and greater than 120% on 5HT2C receptors. The concentration for a half-maximal effect (EC50) at 5HT2B receptors (EC50, 5-HT2B agonist activity) is greater than 10 µM; on 5HT2C receptors (EC50, 5-HT2C agonist activity), 0.003 µM.

In the case of `CN1C[C@H]2CNC(=O)c3cc(-c4cccc(C=O)c4)ccc3[C@@H]2C1` (relative stereo) [Example 198, Trans-3-(2-methyl-6-oxo-1,2,3,3a,4,5,6,10b-octahydrobenzo[e]pyrrolo[3,4-c]azepin-8-yl)benzaldehyde], the 50% effective concentration (EC50) on 5HT2B receptors (setting [1]) was greater than 10 µM; at 5HT2C receptors (setting [3]), 0.009 µM. Further, the maximal response (Emax) entry is “inactive” at 5HT2B receptors (setting [2]) and greater than 120% on 5HT2C receptors (read-out: Emax).

Regarding `CN1C[C@H]2CNC(=O)c3cc(C4=CCCC4)ccc3[C@@H]2C1` (relative stereo) [Example 201, Trans-8-cyclopentenyl-2-methyl-1,2,3,3a,4,5-hexahydrobenzo[e]pyrrolo[3,4-c]azepin-6(10bH)-one], the figures for the Emax result at 5HT2B receptors (setting [2]) and on 5HT2C receptors were “inactive” and 120%, respectively. Moreover, the half-maximal effective concentration (EC50) was greater than 10 µM on 5HT2B receptors (EC50, 5-HT2B agonist activity) and 0.1 µM at 5HT2C receptors (EC50, 5-HT2C agonist activity).

For the compound `C=C(c1ccc2c(c1)C(=O)NC[C@@H]1CN(C)C[C@@H]21)C(F)(F)F` (relative stereo) [Example 202, Trans-2-methyl-8-(3,3,3-trifluoroprop-1-en-2-yl)-1,2,3,3a,4,5-hexahydrobenzo[e]pyrrolo[3,4-c]azepin-6(10bH)-one], the EC50 is greater than 10 µM at 5HT2B receptors (setting [1]) and 0.4 µM on 5HT2C receptors (setting [3]). In addition, the maximal response (Emax) entry at 5HT2B receptors (setting [2]) is “inactive”; on 5HT2C receptors it was 80%.

With `Cc1ccc(-c2ccc3c(c2)C(=O)NC[C@@H]2CN(C)C[C@@H]32)o1` (relative stereo) [Example 203, Trans-2-methyl-8-(5-methylfuran-2-yl)-1,2,3,3a,4,5-hexahydrobenzo[e]pyrrolo[3,4-c]azepin-6(10bH)-one], the figures for the EC50 at 5HT2B receptors (setting [1]) and at 5HT2C receptors (setting [3]) were greater than 10 µM and 0.006 µM, respectively. Besides, the maximal effect (Emax) entry at 5HT2B receptors (setting [2]) was “inactive”; on 5HT2C receptors (read-out: Emax), greater than 120%.

Consider `CN1C[C@H]2CNC(=O)c3cc(C4CCCCC4)ccc3[C@@H]2C1` (relative stereo) [Example 204, Trans-8-cyclohexyl-2-methyl-1,2,3,3a,4,5-hexahydrobenzo[e]pyrrolo[3,4-c]azepin-6(10bH)-one], for which the EC50 at 5HT2B receptors (setting [1]) is greater than 10 µM; on 5HT2C receptors (setting [3]) it was 0.5 µM. Further, the figures for the Emax entry at 5HT2B receptors (setting [2]) and on 5HT2C receptors were “inactive” and 80%, respectively.

As for `CN1C[C@H]2CNC(=O)c3cc(C4CCCC4)ccc3[C@@H]2C1` (relative stereo) [Example 205, Trans-8-cyclopentyl-2-methyl-1,2,3,3a,4,5-hexahydrobenzo[e]pyrrolo[3,4-c]azepin-6(10bH)-one], the 50% effective concentration (EC50) is greater than 10 µM on 5HT2B receptors (setting [1]) and 0.3 µM on 5HT2C receptors (setting [3]). Besides, the maximal effect (Emax) entry on 5HT2B receptors (setting [2]) is “inactive”; on 5HT2C receptors it was 90%.

As to `Brc1ccc2c(c1)[C@H]1CNC[C@@H]1CCO2` (relative stereo) [Example 214, Trans-9-bromo-2,3,3a,4,5,10b-hexahydro-1H-[1]benzoxepino[4,5-c]pyrrole], the maximal response (Emax) at 5HT2B receptors (CHO-K1) was 50%; at 5HT2C receptors, greater than 120%. The EC50 on 5HT2B receptors (EC50, 5-HT2B agonist activity) was 0.02 µM; at 5HT2C receptors (EC50, 5-HT2C agonist activity), 0.002 µM.

On to `c1ccc(-c2ccc3c(c2)[C@H]2CNC[C@@H]2CCO3)cc1` (relative stereo) [Example 215, Trans-9-phenyl-2,3,3a,4,5,10b-hexahydro-1H-[1]benzoxepino[4,5-c]pyrrole], for which the EC50 at 5HT2B receptors (setting [1]) was found to be 5 µM; at 5HT2C receptors (setting [3]), 0.6 µM. The maximal effect (Emax) on 5HT2B receptors (CHO-K1, 5-HT2B, maximum functional response as percentage relative to the effect of serotonin, read-out: Emax) is 15%; on 5HT2C receptors (read-out: Emax), greater than 120%.

On to `CN1C[C@H]2CNC(=O)c3cc(OCc4ccccc4)ccc3[C@@H]2C1` (relative stereo) [Example 216, Trans-8-(benzyloxy)-2-methyl-1,2,3,3a,4,5-hexahydrobenzo[c]pyrrolo[3,4-e]azepin-6(10bH)-one], for which the maximum response (Emax) entry on 5HT2B receptors (setting [2]) was “inactive”; on 5HT2C receptors, greater than 120%. For the same compound, the concentration for a half-maximal effect (EC50) was greater than 10 µM at 5HT2B receptors (EC50, 5-HT2B agonist activity) and 0.002 µM on 5HT2C receptors (EC50, 5-HT2C agonist activity).

As to `O=C1NC[C@@H]2CN(Cc3ccccc3)C[C@H]2c2ccc(-c3ccc(F)cc3)cc21` (relative stereo) [Example 218, Trans-2-benzyl-8-(4-fluorophenyl)-1,2,3,3a,4,5-hexahydrobenzo[e]pyrrolo[3,4-c]azepin-6(10bH)-one], the values for the EC50 on 5HT2B receptors (setting [1]) and on 5HT2C receptors (setting [3]) were greater than 10 µM and 0.04 µM, respectively. Also, the figures for the Emax result on 5HT2B receptors (setting [2]) and at 5HT2C receptors (read-out: Emax) were “inactive” and greater than 120%, respectively.
